Reference: patent publication US20250041312A1, “METHODS OF ADMINISTERING A MODULATOR OF HEMOGLOBIN” (Global Blood Therapeutics, Inc., priority 2021, published 2025)
Where two headings read alike, the source gives them in different places. Marks after values point to notes of the source that are not given here.

Key:
[1] = system: red blood cells; test: Ektacytometry (Lorrca Oxygenscan) red blood cell deformability, SCD patients; type: in vivo, human
Description: An ektacytometer laser optical rotational red cell analyzer (Lorrca; RR Mechatronics, NL) was used to analyze deformability of red blood cells using a defined value of shear stress with an increasing osmotic gradient (Osmoscan) as well as a newer technology to subject these cells to gradual deoxygenation (Oxygenscan).

[2] = target: T1, hemoglobin (Homo sapiens, UniProt P68871+P69905, E7V); test: Percent Hb occupancy in SCD patients (single dose, MAD-1, MAD-2, MAD-3); type: in vivo; settings: for receptor occupancy at 150 mg / receptor occupancy at 50 mg / receptor occupancy at 100 mg: human; for receptor occupancy at 50 mg: 50 mg QD × 5 weeks (MAD-1); for receptor occupancy at 100 mg: 100 mg QD × 3 weeks (MAD-2)
T1 construct: divided by the molar concentration of hemoglobin in RBCs; endogenous in cells; host or cells: red blood cells / blood of patients with SCD (HbSS)
Procedure: (§1) In some embodiments, the therapeutically effective amount is determined by measuring the percent of hemoglobin occupied by the compound, i.e., the percent Hb occupancy. The percent Hb occupancy is a measure of target engagement defined as the percentage of hemoglobin bound by a compound (e.g., Compound I) calculated as the molar concentration of the compound (e.g., Compound I) in RBCs divided by the molar concentration of hemoglobin in RBCs (the mean corpuscular hemoglobin concentration calculated from the hematology panel). The values for concentration of a compound (e.g., Compound I) in RBCs is calculated from the concentrations in whole blood and plasma, and the hematocrit.
After a washout period of at least 56 days (so that elimination PK of Compound I could be assessed), the patients were administered a loading dose of 300 mg per day of Compound I for one day followed by 200 mg per day of Compound I for one day, and then were administered a maintenance dose of 50 mg per day of Compound I for five weeks (“MAD-1 Cohort”). The same patients then received another loading dose of 500 mg per day of Compound I for one day followed by 400 mg per day of Compound I for one day, and then were administered another maintenance dose of 100 mg per day of Compound I for three weeks (“MAD-2 Cohort”). The total treatment period of the MAD-1 Cohort and MAD-2 Cohort was 8 weeks.
Following the conclusion of the MAD-2 study and a washout period of about 8 months, the selected patients (n=4) were administered a loading dose of 300 mg BID for 4 days, followed thereafter by a maintenance dose of 150 mg QD (MAD-3 Cohort).

[3] = Multiple ascending dose (MAD) study in healthy volunteers: safety (TEAEs); type: in vivo, human; settings: blinded; for Number of SAEs / Number of TEAEs / Number of TEAEs grade ≥ 3 / Number of TEAEs leading to study drug discontinuation / Number of drug-related TEAEs: HV MAD, n=10 incl. placebo
Procedure: To evaluate the safety and tolerability of multiple ascending doses (MAD) of Compound I, seven healthy volunteers aged 18 to 55 years old were administered a loading dose of 300 mg of Compound I for 3 days, followed by maintenance doses of 15 mg, 25 mg, 50 mg, or 75 mg of Compound I for 14 days. Three healthy volunteers aged 18 to 55 years old were administered placebo for 14 days. Primary endpoints were safety and tolerability; key secondary endpoints included PK and effect on electrocardiogram (ECG) parameters.
(§2) Another study was initiated in healthy volunteer aged 18-55 years old to evaluate the safety and tolerability of multiple ascending doses of Compound I. Four cohorts of 10 subjects each (n=7 Compound I, n=3 placebo) were evaluated in a sequential double-blind manner. To reach steady state levels each subject received a loading dose regimen for 3 or 4 days followed by once daily medication for up to 14 days. Primary endpoints were safety and tolerability; key secondary endpoints included PK and effect on electrocardiogram (ECG) parameters. Table 7 below provides an overview of the doses of Compound I or placebo that were used in each cohort.
Endpoints were safety (clinical laboratory test results, adverse events, electrocardiogram […] parameters, physical examination findings) and tolerability, and PK.

[4] = target: T2, hemoglobin (Homo sapiens, UniProt P68871+P69905); test: Percent Hb occupancy after repeated administration, healthy volunteers; type: in vivo
T2 construct: divided by the molar concentration of hemoglobin in RBCs; endogenous in cells; host or cells: red blood cells of healthy volunteers (in vivo)
Procedure: as §1, §2
Preliminary whole blood PK parameters (geometric mean and % CV) and hemoglobin occupancy in healthy volunteers of the 15 mg, 25 mg, 50 mg, and 75 mg MAD cohorts are summarized in Table 10.

[5] = SCD, read-out: Hemoglobin Occupancy (%) at Cmax, mean
[6] = SCD, read-out: Hemoglobin Occupancy (%) at Cmin, mean

O=Cc1c(O)cccc1OC[C@@H]1COCCN1C(=O)c1cccnc1CCO [Compound I, (S)-2-hydroxy-6-((4-(2-(2-hydroxyethyl)nicotinoyl)morpholin-3-yl)methoxy)benzaldehyde]
red blood cell health (Oxygenscan) ([1]; MAD-3 cohort SCD patients, 6 weeks (FIG. 13)): Improvement in red blood cell health | red blood cell health by Oxygenscan testing ([1]; SCD patients, MAD-1 and MAD-2 (FIG. 9)): Improvements in red blood cell health were seen in all patients | % Hb occupancy based on Cmax ([2]; SCD single 100 mg, mean): 3.3% | patients who achieved Hb occupancy >40% ([2]; SCD, 100 mg dose level): two out of six | mean Hb occupancy ([2]; adults with SCD, maintenance doses 100 mg and 150 mg QD): > 30% | receptor occupancy at 150 mg ([2]; MAD-3 (150 mg QD) week 6, SCD patient 0001): 48% | receptor occupancy at 150 mg ([2]; MAD-3 (150 mg QD) week 6, SCD patient 0003 (did not adhere to regimen)): 7% | receptor occupancy at 150 mg ([2]; MAD-3 (150 mg QD) week 6, SCD patient 0004 (Hb and hematocrit increases lower the occupancy value)): 31% | receptor occupancy at 150 mg ([2]; MAD-3 (150 mg QD) week 6, SCD patient 0005): 46% | receptor occupancy at 50 mg [2, 5]: 17.7% | receptor occupancy at 50 mg [2, 6]: 15.3% | receptor occupancy at 100 mg [2, 5]: 32.6% | receptor occupancy at 100 mg [2, 6]: 29.8% | tolerability ([3]; HV MAD study): well tolerated | Number of SAEs ([3]; 15 mg maintenance cohort): 0 | Number of TEAEs ([3]; 15 mg maintenance cohort): 8 | Number of TEAEs grade ≥ 3 ([3]; 15 mg maintenance cohort): 0 | Number of TEAEs leading to study drug discontinuation ([3]; 15 mg maintenance cohort): 0 | Number of drug-related TEAEs ([3]; 15 mg maintenance cohort, grade 1 somnolence): 1^b | Number of SAEs ([3]; 25 mg maintenance cohort): 0 | Number of TEAEs ([3]; 25 mg maintenance cohort): 5 | Number of TEAEs grade ≥ 3 ([3]; 25 mg maintenance cohort): 0 | Number of TEAEs leading to study drug discontinuation ([3]; 25 mg maintenance cohort): 0 | Number of drug-related TEAEs ([3]; 25 mg maintenance cohort, vomiting and nausea in 1 participant): 2^c | Number of SAEs ([3]; 50 mg maintenance cohort): 0 | Number of TEAEs ([3]; 50 mg maintenance cohort): 17 | Number of TEAEs grade ≥ 3 ([3]; 50 mg maintenance cohort): 1 | Number of TEAEs leading to study drug discontinuation ([3]; 50 mg maintenance cohort): 0 | Number of drug-related TEAEs ([3]; 50 mg maintenance cohort, headaches and dizziness in 1 participant): 2^d | Number of SAEs ([3]; 75 mg maintenance cohort): 0 | Number of TEAEs ([3]; 75 mg maintenance cohort): 3 | Number of TEAEs grade ≥ 3 ([3]; 75 mg maintenance cohort): 0 | Number of TEAEs leading to study drug discontinuation ([3]; 75 mg maintenance cohort): 0 | Number of drug-related TEAEs ([3]; 75 mg maintenance cohort): 0 | receptor occupancy at 15 mg ([4]; HV MAD Day 14, 15 mg QD maintenance (loading 200 mg x 3 days)): 16% | receptor occupancy at 25 mg ([4]; HV MAD Day 14, 25 mg QD maintenance (loading 200 mg x 3 days)): 16.3% | receptor occupancy at 50 mg ([4]; HV MAD Day 14, 50 mg QD maintenance (loading 500/400/400 mg)): 25.8% | receptor occupancy at 75 mg ([4]; HV MAD Day 14, 75 mg QD maintenance (loading 500/500/500/400 mg)): 35.2%
